Several values for one entry are separate records, joined by “and”; a condition that tells them apart may be missing. Equal entries are not always repeated. Toxic doses and inconclusive results are not listed.
System: L1210 leukemia ip in BDF1 mice, survival T/C
Assay: NCI In Vivo Anticancer Drug Screen. Data for tumor model L1210 Leukemia (intraperitoneal) in B6D2F1 (BDF1) mice
Conditions: higher = longer survival
In short: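 Tumor was transplanted into mice, which were then dosed with test compound or vehicle alone. Survival was recorded for each group, and the treated figure was expressed relative to the control figure.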

[1] = endpoint: mean survival time, dose: 50.0 mg/kg/injection, schedule: Q01DX009 (ip), vehicle: saline with Tween-80
[2] = endpoint: mean survival time, dose: 100.0 mg/kg/injection, schedule: Q01DX001 (ip), vehicle: saline with Tween-80
[3] = endpoint: mean survival time, dose: 100.0 mg/kg/injection, schedule: Q01DX009 (ip), vehicle: saline with Tween-80
[4] = endpoint: mean survival time, dose: 100.0 mg/kg/injection, schedule: Q04DX002 (ip), vehicle: saline with Tween-80
[5] = endpoint: mean survival time, dose: 100.0 mg/kg/injection, schedule: Q04DX003 (ip), vehicle: saline with Tween-80
[6] = endpoint: mean survival time, dose: 100.0 mg/kg/injection, schedule: Q04DX003 (ip), vehicle: saline
[7] = endpoint: mean survival time, dose: 200.0 mg/kg/injection, schedule: Q01DX009 (ip), vehicle: saline with Tween-80
[8] = endpoint: mean survival time, dose: 200.0 mg/kg/injection, schedule: Q04DX002 (ip), vehicle: saline with Tween-80
[9] = endpoint: mean survival time, dose: 200.0 mg/kg/injection, schedule: Q04DX003 (ip), vehicle: saline
[10] = endpoint: mean survival time, dose: 400.0 mg/kg/injection, schedule: Q04DX003 (ip), vehicle: saline with Tween-80
[11] = endpoint: mean survival time, dose: 400.0 mg/kg/injection, schedule: Q01DX009 (ip), vehicle: saline with Tween-80
[12] = endpoint: mean survival time, dose: 200.0 mg/kg/injection, schedule: Q04DX003 (ip), vehicle: saline with Tween-80
[13] = endpoint: mean survival time, dose: 50.0 mg/kg/injection, schedule: Q01DX009 (ip), vehicle: saline
[14] = endpoint: mean survival time, dose: 100.0 mg/kg/injection, schedule: Q01DX001 (ip), vehicle: saline
[15] = endpoint: mean survival time, dose: 200.0 mg/kg/injection, schedule: Q01DX001 (ip), vehicle: saline
[16] = endpoint: mean survival time, dose: 400.0 mg/kg/injection, schedule: Q01DX001 (ip), vehicle: saline

SMILES: COC(=O)N1c2ccccc2C=CC1C#N (configuration not stated)
- T/C (endpoint: mean survival time, dose: 44.0 mg/kg/injection, schedule: Q04DX002 (ip), vehicle: saline with Tween-80): 151 % of control
- T/C (endpoint: mean survival time, dose: 44.0 mg/kg/injection, schedule: Q04DX003 (ip), vehicle: saline with Tween-80): 109 % of control
- T/C (endpoint: mean survival time, dose: 44.0 mg/kg/injection, schedule: Q04DX003 (ip), vehicle: saline): 108 % of control
- T/C [1]: 104 % of control
- T/C (endpoint: mean survival time, dose: 66.0 mg/kg/injection, schedule: Q04DX002 (ip), vehicle: saline with Tween-80): 173 % of control
- T/C (endpoint: mean survival time, dose: 66.0 mg/kg/injection, schedule: Q04DX003 (ip), vehicle: saline with Tween-80): 103 % of control
- T/C (endpoint: mean survival time, dose: 66.0 mg/kg/injection, schedule: Q04DX003 (ip), vehicle: saline): 101 % of control
- T/C [2]: 106 % of control
- T/C [3]: 96 % of control
- T/C [4]: 189 % of control
- T/C [5]: 109 % of control and 209 % of control
- T/C [6]: 106 % of control
- T/C (endpoint: mean survival time, dose: 200.0 mg/kg/injection, schedule: Q01DX001 (ip), vehicle: saline with Tween-80): 106 % of control
- T/C [7]: 102 % of control
- T/C [8]: 156 % of control
- T/C [9]: 111 % of control
- T/C (endpoint: mean survival time, dose: 400.0 mg/kg/injection, schedule: Q01DX001 (ip), vehicle: saline with Tween-80): 104 % of control
- T/C [10]: 96 % of control

SMILES: COc1ccc(C)cc1NC(=O)NC(=O)c1ccc(Cl)cc1
- T/C [1]: 88 % of control
- T/C [3]: 98 % of control
- T/C [7]: 95 % of control

SMILES: COn1c(=O)[nH]c2ccccc2c1=O
- T/C [3]: 94 % of control
- T/C [7]: 91 % of control
- T/C [11]: 97 % of control

SMILES: CC(C)(C)C1=C(C(C)(C)C)CS(=O)(=O)C1
- T/C (endpoint: mean survival time, dose: 25.0 mg/kg/injection, schedule: Q01DX001 (ip), vehicle: saline with Tween-80): 98 % of control
- T/C (endpoint: mean survival time, dose: 50.0 mg/kg/injection, schedule: Q01DX001 (ip), vehicle: saline with Tween-80): 100 % of control
- T/C [2]: 100 % of control and 107 % of control

SMILES: CNC(=O)Oc1c([N+](=O)[O-])cc([N+](=O)[O-])c2ccccc12
- T/C (endpoint: mean survival time, dose: 75.0 mg/kg/injection, schedule: Q01DX001 (ip), vehicle: other): 111 % of control
- T/C (endpoint: mean survival time, dose: 150.0 mg/kg/injection, schedule: Q01DX001 (ip), vehicle: other): 102 % of control

SMILES: O=C(c1cccs1)c1cccs1
- T/C [1]: 98 % of control
- T/C [3]: 100 % of control
- T/C [5]: 102 % of control
- T/C [7]: 94 % of control
- T/C [12]: 107 % of control
- T/C [11]: 96 % of control
- T/C [10]: 101 % of control

SMILES: O=C(NCN1CCOCC1)Nc1ccc(Cl)cc1
- T/C (endpoint: mean survival time, dose: 25.0 mg/kg/injection, schedule: Q01DX009 (ip), vehicle: gum acacia): 100 % of control
- T/C (endpoint: mean survival time, dose: 50.0 mg/kg/injection, schedule: Q01DX009 (ip), vehicle: gum acacia): 91 % of control

SMILES: CCN(CC)CC(=O)NCC(CCN1CCOCC1)(CC(C)C)c1cccc2ccccc12 (configuration not stated)
- T/C [13]: 111 % of control
- T/C (endpoint: mean survival time, dose: 100.0 mg/kg/injection, schedule: Q01DX009 (ip), vehicle: saline): 105 % of control
- T/C [6]: 96 % of control
- T/C [9]: 97 % of control

SMILES: CN(C)N=Nc1ccc(C(N)=O)cc1
- T/C (endpoint: mean survival time, dose: 30.0 mg/kg/injection, schedule: Q01DX Z (ip), vehicle: other): 108 % of control
- T/C (endpoint: mean survival time, dose: 40.0 mg/kg/injection, schedule: Q01DX Z (ip), vehicle: other): 111 % of control
- T/C (endpoint: mean survival time, dose: 60.0 mg/kg/injection, schedule: Q01DX Z (ip), vehicle: other): 121 % of control
- T/C (endpoint: median survival time, dose: 65.0 mg/kg/injection, schedule: Q01DX001 (ip), vehicle: steriod suspending solution): 100 % of control
- T/C (endpoint: median survival time, dose: 65.0 mg/kg/injection, schedule: Q01DX009 (ip), vehicle: steriod suspending solution): 105 % of control
- T/C (endpoint: median survival time, dose: 108.0 mg/kg/injection, schedule: Q01DX001 (ip), vehicle: steriod suspending solution): 100 % of control
- T/C (endpoint: median survival time, dose: 180.0 mg/kg/injection, schedule: Q04DX003 (ip), vehicle: steriod suspending solution): 105 % of control
- T/C (endpoint: median survival time, dose: 300.0 mg/kg/injection, schedule: Q01DX001 (ip), vehicle: steriod suspending solution): 100 % of control

SMILES: O=C(O)c1c2ccccc2cc2ccccc12
- T/C (endpoint: mean survival time, dose: 100.0 mg/kg/injection, schedule: Q01DX009 (ip), vehicle: Klucel (hydroxypropylcellulose) (HPC)): 105 % of control
- T/C (endpoint: mean survival time, dose: 200.0 mg/kg/injection, schedule: Q01DX009 (ip), vehicle: Klucel (hydroxypropylcellulose) (HPC)): 107 % of control
- T/C (endpoint: mean survival time, dose: 400.0 mg/kg/injection, schedule: Q01DX009 (ip), vehicle: Klucel (hydroxypropylcellulose) (HPC)): 104 % of control

SMILES: O=c1nc(SCc2ccccc2)c(SCc2ccccc2)n[nH]1
- T/C [14]: 95 % of control
- T/C [15]: 98 % of control
- T/C [16]: 91 % of control

SMILES: C/C(=N\Nc1ccc([N+](=O)[O-])cc1[N+](=O)[O-])C(F)(F)F
- T/C (endpoint: mean survival time, dose: 100.0 mg/kg/injection, schedule: Q01DX009 (ip), vehicle: saline sonified): 95 % of control
- T/C (endpoint: mean survival time, dose: 100.0 mg/kg/injection, schedule: Q04DX003 (ip), vehicle: Klucel (hydroxypropylcellulose) (HPC)): 94 % of control
- T/C (endpoint: mean survival time, dose: 200.0 mg/kg/injection, schedule: Q01DX009 (ip), vehicle: saline sonified): 98 % of control
- T/C (endpoint: mean survival time, dose: 200.0 mg/kg/injection, schedule: Q04DX003 (ip), vehicle: Klucel (hydroxypropylcellulose) (HPC)): 104 % of control
- T/C (endpoint: mean survival time, dose: 400.0 mg/kg/injection, schedule: Q01DX009 (ip), vehicle: saline sonified): 95 % of control
- T/C (endpoint: mean survival time, dose: 400.0 mg/kg/injection, schedule: Q04DX003 (ip), vehicle: Klucel (hydroxypropylcellulose) (HPC)): 104 % of control

SMILES: COC(=O)C1=CC2C3C=C(C(=O)OC)C(C3)C2C1 (configuration not stated)
- T/C (endpoint: mean survival time, dose: 75.0 mg/kg/injection, schedule: Q01DX001 (ip), vehicle: Klucel (hydroxypropylcellulose) (HPC)): 100 % of control
- T/C (endpoint: mean survival time, dose: 150.0 mg/kg/injection, schedule: Q01DX001 (ip), vehicle: Klucel (hydroxypropylcellulose) (HPC)): 103 % of control
- T/C (endpoint: mean survival time, dose: 300.0 mg/kg/injection, schedule: Q01DX001 (ip), vehicle: Klucel (hydroxypropylcellulose) (HPC)): 98 % of control

SMILES: COc1ccc(Br)c([N+](=O)[O-])c1
- T/C [14]: 103 % of control
- T/C [15]: 97 % of control
- T/C [16]: 103 % of control

SMILES: C#CC[N+]1=CN(c2ccc(C)cc2)Cc2cc(C)ccc21
- T/C [1]: 89 % of control
- T/C [3]: 93 % of control
- T/C [5]: 110 % of control
- T/C [12]: 98 % of control

SMILES: SCc1ccccn1
- T/C (endpoint: mean survival time, dose: 30.0 mg/kg/injection, schedule: Q01DX015 (ip), vehicle: saline): 103 % of control
- T/C (endpoint: mean survival time, dose: 60.0 mg/kg/injection, schedule: Q01DX015 (ip), vehicle: saline): 94 % of control
- T/C [14]: 107 % of control
- T/C (endpoint: mean survival time, dose: 120.0 mg/kg/injection, schedule: Q01DX015 (ip), vehicle: saline): 120 % of control
- T/C [15]: 107 % of control
- T/C (endpoint: mean survival time, dose: 240.0 mg/kg/injection, schedule: Q01DX015 (ip), vehicle: saline): 111 % of control
- T/C [16]: 107 % of control
- T/C (endpoint: mean survival time, dose: 400.0 mg/kg/injection, schedule: Q01DX015 (ip), vehicle: saline): 90 % of control

SMILES: CCC1(CCC#N)CCc2[nH]c3ccccc3c2C1=O (configuration not stated)
- T/C [4]: 108 % of control
- T/C [8]: 94 % of control
- T/C (endpoint: mean survival time, dose: 400.0 mg/kg/injection, schedule: Q04DX002 (ip), vehicle: saline with Tween-80): 87 % of control

SMILES: COc1cc2c(c(OC)c1OC)-c1ccc(SCC3CCC4CC3C4(C)C)c(=O)cc1C(NC(C)=O)CC2 (configuration not stated)
- T/C (endpoint: mean survival time, dose: 12.5 mg/kg/injection, schedule: Q04DX002 (ip), vehicle: saline): 100 % of control
- T/C (endpoint: mean survival time, dose: 25.0 mg/kg/injection, schedule: Q04DX002 (ip), vehicle: saline): 95 % of control
- T/C (endpoint: mean survival time, dose: 50.0 mg/kg/injection, schedule: Q04DX002 (ip), vehicle: saline): 106 % of control

SMILES: BrC1CCCCC1Br (configuration not stated)
- T/C [14]: 98 % of control
- T/C [15]: 101 % of control

SMILES: CN1CCN(c2ccccc2N)CC1
- T/C (endpoint: mean survival time, dose: 5.0 mg/kg/injection, schedule: Q04DX003 (ip), vehicle: saline): 107 % of control
- T/C (endpoint: mean survival time, dose: 10.0 mg/kg/injection, schedule: Q04DX003 (ip), vehicle: saline): 96 % of control
- T/C (endpoint: mean survival time, dose: 20.0 mg/kg/injection, schedule: Q04DX003 (ip), vehicle: saline): 96 % of control

SMILES: CC(c1ccc2ccccc2c1)c1ccccc1C(=O)O (configuration not stated)
- T/C (endpoint: mean survival time, dose: 100.0 mg/kg/injection, schedule: Q01DX001 (ip), vehicle: gum acacia): 94 % of control
- T/C (endpoint: mean survival time, dose: 200.0 mg/kg/injection, schedule: Q01DX001 (ip), vehicle: gum acacia): 102 % of control
- T/C (endpoint: mean survival time, dose: 400.0 mg/kg/injection, schedule: Q01DX001 (ip), vehicle: gum acacia): 89 % of control

SMILES: C[N+]1(C)CCC2=CC3C=CC2C1C=C3 (configuration not stated)
- T/C (endpoint: mean survival time, dose: 12.5 mg/kg/injection, schedule: Q01DX009 (ip), vehicle: saline): 95 % of control
- T/C (endpoint: mean survival time, dose: 25.0 mg/kg/injection, schedule: Q01DX009 (ip), vehicle: saline): 93 % of control
- T/C [13]: 90 % of control
